“Also recorded” adds a separate entry of the source. Ends that are not written are not given here. Peptide text beside a SMILES is read from it. * marks the point of attachment. Biotin = O=C1N[C@H]2[C@H](CS[C@H]2CCCCC(=O)*)N1
Tests used:
Assay type in all cases: biochemical
[1] = target: T1, EGFR (His6-EGFR 672-998) (Homo sapiens, UniProt P00533); test: Michaelis-Menten kinetic analysis of substrate peptides, [γ-33P]ATP radiolabel incorporation; details: for kcat: lower limit extrapolated from kcat/Km
T1 construct: His6-EGFR^672-998; His6 (N); made in house; host or cells: Sf9 insect cells
From the text: (§1) The mammalian expression vector to produce the intracellular portion of human FLT3 fused to GST (GST-FLT3^564-993) was generated by PCR amplifying the encoding sequence and subcloning into the BamHI and NotI sites of pEBG-2T. Mammalian expression vectors to produce BTK, SRC and SYK as GST fusion proteins were previously described. GST-tagged kinases were expressed in HEK293T cells and purified by affinity chromatography using glutathione Sepharose 4B as described (Deng, et al., Journal of Proteome Research 2014, 13, 4339). His6-EGFR^672-998 (“His6” disclosed SEQ ID NO: 25) and His6-ALK^1090-1416 (“His6” disclosed SEQ ID NO: 25) were expressed and purified from Sf9 insect cells as described (Park, et al., Biochemical Journal 2012, 448, 417; Bresler, et al., Science Translational Medicine 2011, 3, 108ra114). Human ABL was purchased from Life Technologies.
(§2) Biotinylated peptides (10 μM final concentration) were arrayed in a 384-well plate in 18 μL reaction buffer (50 mM HEPES, pH 7.5, 150 mM NaCl, 10 mM MgCl2, 1 mM DTT, 0.1% v/v Tween-20). Reactions were initiated by adding […] kinase (to 3-9 ng/μL) and [γ-^33P] ATP (to 50 μM, 0.025 μCi/μL) in reaction buffer. Plates were sealed and incubated at 30° C. for 30 min, and then 2 μL aliquots were transferred to streptavidin membrane (Promega SAM2 biotin capture membrane) using a pin-tool. […] Incorporation of radiolabel was quantified by phosphor imaging using QuantityOne software (Bio-Rad). After background correction, data were normalized such that the peptide with the greatest signal was 100%. Normalized data from at least two separate experiments were averaged and converted to heatmaps using Excel (Microsoft).
(§3) Final kinase concentrations were as follows: 0.3 ng/μL for ABL, BTK, SRC and SYK; 1.5 ng/μL for FLT3; 2.7 ng/μL for ALK and EGFR. At various incubation times (10, 20 and 30 min), 2 μL aliquots were transferred using a pin tool to P81 phosphocellulose paper (Reaction Biology), which was washed three times in 75 mM H3PO4, briefly washed in acetone and allowed to dry before exposing to a phosphor screen. Incorporation of radiolabel into peptides was quantified as above. After background correction, initial rates of reaction were determined by linear regression and fit to the Michaelis-Menten equation using Prism (GraphPad). […] Reported kinetic parameters are the average of three separate experiments except for FLT3 (two experiments).

[2] = target: T2, ALK (His6-ALK 1090-1416) (Homo sapiens, UniProt Q9UM73); test: as above; details: for kcat: lower limit extrapolated from kcat/Km
T2 construct: His6-ALK^1090-1416; His6 (N); made in house; host or cells: Sf9 insect cells
T2 sequence (Q9UM73 1090-1416): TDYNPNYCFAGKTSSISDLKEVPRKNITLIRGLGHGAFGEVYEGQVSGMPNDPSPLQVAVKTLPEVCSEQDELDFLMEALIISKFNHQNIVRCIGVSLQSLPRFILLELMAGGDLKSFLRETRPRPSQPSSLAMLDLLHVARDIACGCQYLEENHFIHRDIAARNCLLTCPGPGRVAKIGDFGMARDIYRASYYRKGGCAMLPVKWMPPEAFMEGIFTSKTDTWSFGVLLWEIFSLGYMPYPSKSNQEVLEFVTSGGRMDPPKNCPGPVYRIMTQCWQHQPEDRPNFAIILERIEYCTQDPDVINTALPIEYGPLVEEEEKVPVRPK
From the text: as §1, §2, §3

[3] = target: T3, FLT3 (GST-FLT3 564-993) (Homo sapiens, UniProt P36888); test: as above; details: for kcat: mean ± sem of fits
T3 construct: human FLT3 fused to GST (GST-FLT3^564-993); GST (N); made in house; host or cells: HEK293T cells
T3 sequence (P36888 564-993): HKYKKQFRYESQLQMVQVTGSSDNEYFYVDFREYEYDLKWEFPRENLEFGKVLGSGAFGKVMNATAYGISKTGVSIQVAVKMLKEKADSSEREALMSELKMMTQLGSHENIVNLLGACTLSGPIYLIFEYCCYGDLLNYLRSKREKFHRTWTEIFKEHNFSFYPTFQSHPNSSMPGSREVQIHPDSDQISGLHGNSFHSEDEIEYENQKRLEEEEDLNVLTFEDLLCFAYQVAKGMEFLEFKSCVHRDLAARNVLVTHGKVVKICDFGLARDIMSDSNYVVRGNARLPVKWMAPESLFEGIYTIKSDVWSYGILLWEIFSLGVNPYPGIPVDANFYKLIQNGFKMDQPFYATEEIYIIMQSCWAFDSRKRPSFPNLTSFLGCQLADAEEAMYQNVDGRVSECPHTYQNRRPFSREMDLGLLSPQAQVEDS
From the text: as §1, §2, §3

[4] = target: T4, Syk (Homo sapiens, UniProt P43405); test: as above
T4 construct: GST; made in house; host or cells: HEK293T cells
From the text: as §1, §2, §3

[5] = target: T5, Abl (Homo sapiens, UniProt P00519); test: as above
T5 construct: purchased Life Technologies
T5 sequence (P00519 whole entry): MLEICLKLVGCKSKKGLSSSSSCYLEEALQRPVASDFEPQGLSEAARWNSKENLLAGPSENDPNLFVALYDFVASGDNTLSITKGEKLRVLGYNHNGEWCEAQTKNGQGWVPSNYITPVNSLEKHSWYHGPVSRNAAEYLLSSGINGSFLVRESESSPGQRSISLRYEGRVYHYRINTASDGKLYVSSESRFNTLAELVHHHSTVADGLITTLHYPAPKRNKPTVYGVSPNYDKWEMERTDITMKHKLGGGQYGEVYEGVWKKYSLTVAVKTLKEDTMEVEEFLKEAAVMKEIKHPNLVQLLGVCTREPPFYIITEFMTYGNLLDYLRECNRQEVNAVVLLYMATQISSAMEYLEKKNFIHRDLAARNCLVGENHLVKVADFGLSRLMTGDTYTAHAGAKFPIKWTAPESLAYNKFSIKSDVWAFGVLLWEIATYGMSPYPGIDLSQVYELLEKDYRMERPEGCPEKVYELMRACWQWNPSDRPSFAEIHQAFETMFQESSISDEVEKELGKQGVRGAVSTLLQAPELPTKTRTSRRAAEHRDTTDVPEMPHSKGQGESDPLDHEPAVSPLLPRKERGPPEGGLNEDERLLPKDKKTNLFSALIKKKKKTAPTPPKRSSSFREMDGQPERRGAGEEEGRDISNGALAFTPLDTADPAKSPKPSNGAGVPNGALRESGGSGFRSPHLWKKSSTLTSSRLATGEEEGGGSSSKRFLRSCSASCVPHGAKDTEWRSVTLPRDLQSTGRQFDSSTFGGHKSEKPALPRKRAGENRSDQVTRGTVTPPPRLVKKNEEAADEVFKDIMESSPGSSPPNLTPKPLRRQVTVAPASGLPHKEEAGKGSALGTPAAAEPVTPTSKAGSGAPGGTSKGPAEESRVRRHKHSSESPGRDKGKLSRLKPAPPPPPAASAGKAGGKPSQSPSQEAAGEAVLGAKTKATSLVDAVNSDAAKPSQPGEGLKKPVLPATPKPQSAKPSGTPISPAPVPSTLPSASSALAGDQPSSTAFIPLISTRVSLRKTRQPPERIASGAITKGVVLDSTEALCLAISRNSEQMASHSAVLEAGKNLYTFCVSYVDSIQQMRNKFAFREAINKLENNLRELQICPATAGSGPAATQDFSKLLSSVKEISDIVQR
From the text: as §1, §2, §3

[6] = target: T6, Src (Homo sapiens, UniProt P12931); test: as above; details: for kcat: lower limit extrapolated from kcat/Km
T6 construct: GST; made in house; host or cells: HEK293T cells
From the text: as §1, §2, §3

[7] = target: T7, BTK (Homo sapiens, UniProt Q06187); test: as above; details: for kcat: mean ± sem of fits
T7 construct: GST; made in house; host or cells: HEK293T cells
T7 sequence (Q06187 whole entry, species assumed): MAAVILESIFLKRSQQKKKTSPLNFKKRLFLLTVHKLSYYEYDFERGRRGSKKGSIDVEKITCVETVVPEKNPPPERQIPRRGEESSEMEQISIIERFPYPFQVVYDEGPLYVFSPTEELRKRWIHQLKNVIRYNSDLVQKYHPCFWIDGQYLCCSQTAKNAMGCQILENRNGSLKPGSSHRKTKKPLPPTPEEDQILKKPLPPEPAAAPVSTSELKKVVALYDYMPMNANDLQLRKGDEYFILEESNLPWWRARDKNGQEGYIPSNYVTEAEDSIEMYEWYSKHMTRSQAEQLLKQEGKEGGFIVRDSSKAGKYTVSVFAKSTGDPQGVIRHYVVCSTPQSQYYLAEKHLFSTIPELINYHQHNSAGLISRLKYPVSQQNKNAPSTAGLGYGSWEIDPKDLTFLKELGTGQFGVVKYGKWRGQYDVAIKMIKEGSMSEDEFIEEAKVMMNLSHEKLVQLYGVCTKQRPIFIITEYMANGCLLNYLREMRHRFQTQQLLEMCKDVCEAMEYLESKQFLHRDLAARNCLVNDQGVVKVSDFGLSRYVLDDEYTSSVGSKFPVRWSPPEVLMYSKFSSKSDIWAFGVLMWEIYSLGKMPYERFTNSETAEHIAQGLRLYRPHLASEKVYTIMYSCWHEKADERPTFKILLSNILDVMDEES
From the text: as §1, §2, §3

[8] = system: panel of 15 PTKs; test: Universal kinase substrate screen of the pilot library, [γ-33P]ATP incorporation; details: biotinylated peptides 10 μM; for phosphorylation by the panel of PTKs: 50 μM ATP, 30° C., 30 min, 15 PTKs; for average phosphorylation across the kinase panel: averaged over 15 PTKs (FIG. 1B)
Procedure: This pilot library was then subjected to an initial screen to test their phosphorylation by a panel of 15 PTKs that included 12 non-receptor TKs (representing all 10 NRTK families) and 3 receptor TKs (representing 3 RTK families). Pilot peptides were assayed alongside several previously reported substrates that were designed to be specific to individual kinases. Conversion to product was monitored via incorporation of phosphate from [γ-^33P] radiolabeled adenosine triphosphate (ATP). These intensities were normalized to background and visualized as a heat map in FIG. 1. […] By contrast, as previously reported, peptides that had been designed to specifically target individual kinases had more restricted reactivity.
as §2

[9] = peptide 2 relative to peptide 5
[10] = lower limit extrapolated from kcat/Km

| Compound | kcat [1] [s⁻¹] | 2/5 kcat/Km ratio [1, 9] | kcat [2] [s⁻¹] | 2/5 kcat/Km ratio [2, 9] | kcat [3] [s⁻¹] | 2/5 kcat/Km ratio [3, 9] | 2/5 kcat/Km ratio [4, 9] | kcat [5, 10] [s⁻¹] | 2/5 kcat/Km ratio [5, 9] | kcat [6] [s⁻¹] | 2/5 kcat/Km ratio [6, 9] | kcat [7] [s⁻¹] | 2/5 kcat/Km ratio [7, 9] | phosphorylation by the panel of PTKs [8] | average phosphorylation across the kinase panel [8] | kcat [4, 10] [s⁻¹] | kcat ([5]; mean ± sem of fits) [s⁻¹] |
| --- | --- | --- | --- | --- | --- | --- | --- | --- | --- | --- | --- | --- | --- | --- | --- | --- | --- |
| CC[C@H](C)[C@H](NC(=O)[C@@H]1CCCN1C(=O)[C@H](CC(=O)O)NC(=O)[C@@H](N)CCC(=O)O)C(=O)N[C@@H](Cc1ccc(O)cc1)C(=O)N[C@H](C(=O)N[C@H](C(=O)N[C@@H](CC(C)C)C(=O)N[C@@H](CCC(=O)O)C(=O)NCC(=O)NCC(=O)N[C@@H](CCCCNC(=O)CCCC[C@@H]1SC[C@@H]2NC(=O)N[C@@H]21)C(=O)NCC(=O)NCC(N)=O)[C@@H](C)O)C(C)C [Peptide 2] (H-EDPIYVTLEGGK(Biotin)GG-NH2) | >0.005 | 5.8 ± 0.2 | >0.02 | 1.23 ± 0.02 | 0.013 ± 0.004 | 1.43 ± 0.07 | 1.8 ± 0.2 | >4 | 0.13 ± 0.01 | >40 | 0.52 ± 0.07 | 0.061 ± 0.019 | 0.31 ± 0.01 | phosphorylated by every PTK tested | highest average rate of phosphorylation across the entire panel of kinases; also recorded: highest phosphorylation averaged across the kinase panel |  |  |
| CC[C@H](C)[C@H](NC(=O)[C@H](C)NC(=O)[C@H](CCC(=O)O)NC(=O)[C@@H](N)CC(=O)O)C(=O)N[C@@H](Cc1ccc(O)cc1)C(=O)N[C@@H](C)C(=O)N[C@H](C(=O)N[C@H](C(=O)N[C@@H](C)C(=O)NCC(=O)NCC(=O)N[C@@H](CCCCNC(=O)CCCC[C@@H]1SC[C@@H]2NC(=O)N[C@@H]21)C(=O)NCC(=O)NCC(N)=O)C(C)C)[C@@H](C)O [Peptide 5] (H-DEAIYATVAGGK(Biotin)GG-NH2) | >0.001 |  | >0.02 |  | 0.014 ± 0.004 |  |  |  |  | >2 |  | 0.26 ± 0.08 |  | phosphorylated by every PTK tested | highest average rate of phosphorylation across the entire panel of kinases; also recorded: highest phosphorylation averaged across the kinase panel | >0.1 | 16.5 ± 3.5 |
| DEPIYDTVEGGKbiotinGG (DEPIYDTVEGGK(Biotin)GG) [Peptide 6] |  |  |  |  |  |  |  |  |  |  |  |  |  | phosphorylated by every PTK tested |  |  |  |
